From patent US10576078B2 (Council of Scientific & Industrial Research, priority 2017, dated 2020)

Columns and labels:
Assay type in all cases: cell-based, Human
[1] = system: CD34+ population from CP-CML cells from imatinib-resistant patients; test: CD34+ count and apoptosis in CD34+ LSC population from imatinib-resistant CP-CML patients
Procedure: CD34^+ population from CP-CML cells from imatinib-resistant patients (n=3) were individually purified using a CD34 microbead kit (Miltenyi Biotech) and were treated with 5 μM CFZ or salinomycin for 48 h. Cells were then divided into two groups. One group was assessed by immunostaining for CD34 and the other group was stained with annexin V/PI and the cells were then analyzed by flow-cytometry. Salinomycin was used as positive control. **p<0.01, ***p<0.0001.
CD34^+ population from primary CP-CML cells from imatinib-resistant patients (n=3) were purified using a CD34 microbead kit. Cells were incubated with V or 2.5 μM CFZ for 96 h, stained with PE-conjugated anti-CD34 and FITC-conjugated anti-CD38 antibodies for specific subpopulation and apoptosis was analyzed by APC labeled annexin V and propidium iodide (PI) staining followed by flow-cytometry (FACSCalibur, BD biosciences). *p<0.05, **p<0.01.
The observed purity was 80-90%.
For assessing apoptosis in the CD34^+ population from CML patients, these cells were then treated as indicated in the figures and figure descriptions (FIG. 2A). At the end of treatment, cells from each treatment group were divided in two separate tubes. One group was stained with CD34-PE and the other group was stained with Annexin V FITC/PI antibodies.
For assessing apoptosis in CD34^+ CD38^+ and CD34^+ CD38^− subpopulations from CML patients, CD34^+ cells were isolated as above and were treated with V or 2.5 μM CFZ for 96 h and then stained with PE-conjugated anti-CD34, FITC-conjugated anti-CD38 antibodies for 30 min and then stained with Annexin V-APC/PI at room temperature for 15 minutes and then were gated into CD34^+38^+ and CD34^+38^− populations and apoptosis was assessed in a FACSAria flow cytometer.

[2] = system: stat5b, HIF-1α, HIF-2α and CITED2 transcripts in CD34+ cells from imatinib-resistant patients; test: QRT-PCR of stem cell factors in CD34+ CML cells
Procedure: CD34^+ cells isolated from IMT-resistant patients (n=3) were treated with CFZ (5 μM, 24 h) and stat5b, HIF-1α, HIF-2α and CITED2 transcripts were assessed by QRT-PCR (in triplicates). ***p<0.0001.
CD34+ cells were isolated from imatinib-resistant CP-CML cells as described above. Cells were then treated with vehicle (V; 0.1% DMSO) or CFZ (5 μM) for 24 h. Total RNA was isolated from CD34+ cells as described above, using TRI reagent. 2 μg total RNA was reverse transcribed using High-Capacity cDNA Reverse Transcription Kit (Applied Biosystems; Foster City, Calif.). Quantitative real-time PCRs (QRT-PCR) were performed on a LightCycler 480 System (Roche, Indianapolis, Ind.) using VeriQuest SYBR Green qPCR Master Mix (Affymetrix, Thermo Scientific). The QRT-PCR primers were designed using Universal ProbeLibrary Assay Design Center (Roche Life Science). Primer sequences (5′-3′) hSTAT5B-For-TGAAG […], hSTAT5B-Rev […] ACTG, hHIF-1α-For-[…], hHIF-1α-Rev-[…], hHIF-2α-For-[…], hHIF-2α-Rev-[…], hCITED-2-For-[…], hCITED-2-Rev-[…]. The data were analyzed by ΔΔCT method with GAPDH (GAPDH-For-[…], GAPDH-Rev-GCC […]) used as an internal control (FIG. 2F).

K562 cells = test: Megakaryocytic differentiation in K562 cells (May-Grünwald-Giemsa staining, CD61/CD41 flow cytometry)
Procedure: K562 cells were treated with CFZ for 120 h and May-Grünwald-Giemsa staining followed by light microscopy was used to assess cellular morphology. […] PMA was used as appositive control. Representative photomicrographs from two independent experiments (8 fields per treatment group) are shown.
FIG. 3B-3C in particular show CFZ induces megakaryocytic surface markers CD61 (early) and CD41 (late) in K562 cells. K562 cells were treated as indicated for 72 h (Phorbol myristate acetate (PMA) was used as positive control) and then were stained with IgG isotype control or CD61 (B) & CD41 (C) IgG antibodies and were analyzed by flowcytometry (n=3). ***p<0.0001. PMA was used as a positive control.
May-Grünwald Giemsa Staining: To assess the changes in nuclear morphology, cells treated with vehicle (0.1% DMSO), CFZ (indicated concentrations in FIG. 3A) or PMA (positive control; 10 ng/ml) for 120 h (FIG. 3A). Cells were then washed with phosphate buffer saline (PBS) and were attached to glass slides by cytospin. These slides were stained with Giemsa and May-Grünwald solution (Sigma) as per manufacturer's instruction. Cells were then visualized by microscopy.
Differentiation analyses by flow cytometry: K562 (FIG. 3B-C) or primary CP-CML cells (FIG. 3D-E) were treated with vehicle, CFZ and PMA as indicated in the respective figures and figure descriptions for 72 hrs. Cells were then harvested, washed, and centrifuged, resuspended in 100 μl PBS and were stained with CD41-FITC or CD61-PE antibodies for 30 min at room temperature (in dark). After incubation, the cells were washed and resuspended in 300 μl PBS and were analyzed on a FACSCalibur flow cytometer.

[3] = CD34+ cells from imatinib-resistant patients, CFZ 5 μM, 24 h

## CC(C)/N=c1\cc2n(-c3ccc(Cl)cc3)c3ccccc3nc-2cc1Nc1ccc(Cl)cc1 [CFZ, Clofazimine]
[1]; 2.5 μM CFZ, 96 h, n=3
  apoptosis in committed CD34+38+ progenitor cells: induced apoptosis
  apoptosis in primitive CD34+38− progenitor cells: induced apoptosis
[1]; imatinib-resistant CP-CML patients, n=3, 5 μM, 48 h
  apoptosis in CD34+ LSC population: induced apoptosis
[1]; imatinib-resistant patients, 5 μM, 48 h
  CD34+ population: reduces
[2]; [3]
  CITED2 transcript: reduced
  HIF-1α transcript: reduced
  HIF-2α transcript: reduced
  stat5b transcript: reduced
[2]; FIG. 2F
  stat5 mRNA expression: suppressed
K562 cells; 1 μM, 120 h, May-Grünwald-Giemsa staining
  megakaryocytic differentiation phenotype: induced
K562 cells; 72 h
  megakaryocytic surface marker CD41: increased
  megakaryocytic surface marker CD61: increased
